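Step 1: Grow cells in 96-well plates. Step 2: Expose to compound for 48 hours at 5 concentrations. Step 3: Interpolate endpoints linearly; if unreached, use highest concentration. GI50 = concentration required for 50% inhibition of growth.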 Active and inactive are the calls of the source. Cut-off read from the data, not from the text of the source: active = GI50 up to about 1.1 µM and inactive = higher. Square brackets hold non-standard residues; d marks the D form. Peptide text beside a SMILES is read from it. * marks the point of attachment. X26 = COC1=CC(=O)N(C(=O)[C@@H](O*)C(C)C)[C@H]1Cc1ccccc1; NMeV = CN[C@H](C(=O)O)C(C)C; Hexanoyl = CCCCCC(=O)*
Experiments:
Experiment in all cases: NCI tumour cell line growth inhibition, 48 h
RPMI-8226 = test system: RPMI-8226
K562 = test system: K562
MDA-MB-231 = test system: MDA-MB-231
DU-145 = test system: DU-145
Hs-578T = test system: Hs-578T
U-251 = test system: U-251
TK-10 = test system: TK-10
SF-539 = test system: SF-539
HCT-15 = test system: HCT-15
SW-620 = test system: SW-620
MDA-MB-435 = test system: MDA-MB-435
UACC-62 = test system: UACC-62
MDA-N = test system: MDA-N
UACC-257 = test system: UACC-257
MOLT-4 = test system: MOLT-4
IGROV-1 = test system: IGROV-1
SNB-19 = test system: SNB-19
NCI/ADR-RES = test system: NCI/ADR-RES
NCI-H522 = test system: NCI-H522
UO-31 = test system: UO-31

In the case of `O=C1C=CC(=O)c2c1ccc1c3ccccc3n(CCCCCCCCn3c4ccccc4c4ccc5c(c43)C(=O)C=CC5=O)c21`, the GI50 (RPMI-8226) is reported as > 100 µM (inactive), the GI50 (K562) is reported as > 100 µM (inactive) and the GI50 (MDA-MB-231) is reported as > 100 µM (inactive). For the same compound, the GI50 (DU-145) was > 100 µM (inactive), the GI50 (Hs-578T) was 30.8 µM (inactive) and the GI50 (U-251) was > 100 µM (inactive). The GI50 (TK-10) was > 100 µM (inactive), the GI50 (SF-539) was > 100 µM (inactive) and the GI50 (HCT-15) was greater than 100 µM. The GI50 (SW-620) was > 100 µM (inactive), the GI50 (MDA-MB-435) was > 100 µM (inactive) and the GI50 (UACC-62) was > 100 µM (inactive). The GI50 (MDA-N) was > 100 µM (inactive), the GI50 (UACC-257) was > 100 µM (inactive) and the GI50 (MOLT-4) was 85.7 µM (inactive). For the same compound, the GI50 (IGROV-1) was > 100 µM (inactive), the GI50 (SNB-19) was > 100 µM (inactive) and the GI50 (NCI/ADR-RES) was > 100 µM (inactive). For the same compound, the GI50 (NCI-H522) was > 100 µM (inactive).

With `COc1cccc2c(=O)oc(-c3ccccc3C)nc12` the GI50 (RPMI-8226) was 38.2 µM (inactive), the GI50 (K562) was 39.8 µM (inactive) and the GI50 (MDA-MB-231) was 63.7 µM (inactive). For the same compound, the GI50 (DU-145) was 61 µM (inactive), the GI50 (Hs-578T) was 43.5 µM (inactive) and the GI50 (U-251) was 45.4 µM (inactive). For the same compound, the GI50 (TK-10) was > 100 µM (inactive), the GI50 (SF-539) was 25.5 µM (inactive) and the GI50 (HCT-15) was 43.9 µM. For the same compound, the GI50 (UO-31) was 58.3 µM (inactive), the GI50 (SW-620) was 40.6 µM (inactive) and the GI50 (MDA-MB-435) was 33.6 µM (inactive). For the same compound, the GI50 (UACC-62) was 62.1 µM (inactive), the GI50 (MDA-N) was 19.8 µM (inactive) and the GI50 (MOLT-4) was 26.7 µM (inactive). The GI50 (IGROV-1) was 18.7 µM (inactive), the GI50 (NCI/ADR-RES) was 29.2 µM (inactive) and the GI50 (NCI-H522) was 46.9 µM (inactive).

`CC(C)(C)N1C=[N+](C(C)(C)C)CC1` was tested, and the GI50 (RPMI-8226) was > 100 µM (inactive), the GI50 (K562) was > 100 µM (inactive) and the GI50 (MDA-MB-231) was > 100 µM (inactive). The GI50 (DU-145) was > 100 µM (inactive), the GI50 (Hs-578T) was > 100 µM (inactive) and the GI50 (U-251) was > 100 µM (inactive). For the same compound, the GI50 (TK-10) was > 100 µM (inactive), the GI50 (SF-539) was > 100 µM (inactive) and the GI50 (HCT-15) was greater than 100 µM. The GI50 (UO-31) was > 100 µM (inactive), the GI50 (SW-620) was > 100 µM (inactive) and the GI50 (MDA-MB-435) was > 100 µM (inactive). For the same compound, the GI50 (MDA-N) was > 100 µM (inactive), the GI50 (UACC-257) was > 100 µM (inactive) and the GI50 (MOLT-4) was > 100 µM (inactive). For the same compound, the GI50 (IGROV-1) was > 100 µM (inactive), the GI50 (SNB-19) was > 100 µM (inactive) and the GI50 (NCI/ADR-RES) was > 100 µM (inactive). The GI50 (NCI-H522) was > 100 µM (inactive).

For `Cc1cnc2sn(-c3ccc(Oc4ccccc4)cc3)c(=O)c2c1`, the GI50 (RPMI-8226) was 9.62 µM (inactive), the GI50 (MDA-MB-231) was 20.5 µM (inactive) and the GI50 (DU-145) was 14.1 µM (inactive). For the same compound, the GI50 (Hs-578T) was 21.1 µM (inactive), the GI50 (U-251) was 17 µM (inactive) and the GI50 (TK-10) was 17.7 µM (inactive). The GI50 (SF-539) was 14 µM (inactive), the GI50 (HCT-15) was 7.38 µM and the GI50 (UO-31) was 19.5 µM (inactive). For the same compound, the GI50 (SW-620) was 21.2 µM (inactive), the GI50 (MDA-MB-435) was 13.3 µM (inactive) and the GI50 (UACC-62) was 10.3 µM (inactive). The GI50 (MDA-N) was 16.6 µM (inactive), the GI50 (UACC-257) was 11.9 µM (inactive) and the GI50 (MOLT-4) was 8.67 µM (inactive). The GI50 (IGROV-1) was 14.7 µM (inactive), the GI50 (SNB-19) was 19.7 µM (inactive) and the GI50 (NCI/ADR-RES) was 21.7 µM (inactive). The GI50 (NCI-H522) was 5.58 µM (inactive).

For `CCCCCC(=O)N[C@H](C(=O)N[C@H](C(=O)N(C)[C@H](C(=O)N1CCC[C@H]1C(=O)N1CCC[C@H]1C(=O)O[C@H](C(=O)N1C(=O)C=C(OC)[C@@H]1Cc1ccccc1)C(C)C)C(C)C)C(C)C)C(C)C` (Hexanoyl-VV[NMeV]PP-X26), the GI50 (RPMI-8226) was 84.1 µM (inactive), the GI50 (K562) was 71.1 µM (inactive) and the GI50 (MDA-MB-231) was 34.2 µM (inactive). The GI50 (DU-145) was > 100 µM (inactive), the GI50 (Hs-578T) was 68.2 µM (inactive) and the GI50 (U-251) was 43.8 µM (inactive). For the same compound, the GI50 (TK-10) was > 100 µM (inactive), the GI50 (SF-539) was 36.9 µM (inactive) and the GI50 (HCT-15) was greater than 100 µM. For the same compound, the GI50 (UO-31) was 40 µM (inactive), the GI50 (SW-620) was > 100 µM (inactive) and the GI50 (MDA-MB-435) was 36.2 µM (inactive). For the same compound, the GI50 (UACC-62) was 82.6 µM (inactive), the GI50 (MDA-N) was 33.8 µM (inactive) and the GI50 (UACC-257) was 87.7 µM (inactive). The GI50 (MOLT-4) was 63 µM (inactive), the GI50 (IGROV-1) was > 100 µM (inactive) and the GI50 (NCI/ADR-RES) was > 100 µM (inactive). The GI50 (NCI-H522) was > 100 µM (inactive).

`CC(N)/C(N)=N/O` (stereo not drawn) was tested, and the GI50 (RPMI-8226) was > 100 µM (inactive), the GI50 (K562) was > 100 µM (inactive) and the GI50 (MDA-MB-231) was > 100 µM (inactive). For the same compound, the GI50 (DU-145) was > 100 µM (inactive), the GI50 (Hs-578T) was > 100 µM (inactive) and the GI50 (U-251) was > 100 µM (inactive). The GI50 (TK-10) was > 100 µM (inactive), the GI50 (SF-539) was > 100 µM (inactive) and the GI50 (HCT-15) was greater than 100 µM. The GI50 (UO-31) was > 100 µM (inactive), the GI50 (SW-620) was > 100 µM (inactive) and the GI50 (MDA-MB-435) was > 100 µM (inactive). For the same compound, the GI50 (UACC-62) was > 100 µM (inactive), the GI50 (MDA-N) was > 100 µM (inactive) and the GI50 (UACC-257) was > 100 µM (inactive). For the same compound, the GI50 (IGROV-1) was > 100 µM (inactive), the GI50 (SNB-19) was > 100 µM (inactive) and the GI50 (NCI/ADR-RES) was > 100 µM (inactive). The GI50 (NCI-H522) was > 100 µM (inactive).

From ChEMBL document CHEMBL1201862, “PubChem BioAssay data set” (2004)
